Entries after “also recorded” stand apart in the source; their conditions may differ.
What was measured:
lavaged rat model of RDS = assay: Oxygenation response in lavaged rat model of RDS; type: in vivo; settings: for in vivo activity in the rat RDS model system: FIGS. 6A and 6B (oxygenation and dynamic compliance)
From the text: FIG. 6A illustrates an example of an oxygenation response of a lavaged rat model of RDS comparing INFASURF™, a known effective animal based (cow lung lavage that includes surfactant lipids and native Cow SP-B and SP—C proteins) supplement formulation (—◯—), pig native surfactant B in INFASURF™ lipids (—Δ—), Mini-B peptide in simulated INFASURF™ lipids (—▪—), the C-terminal domain of SP-B (residues 63-78) in the oxidized (--♦--) and reduced format (—∇--), a serine derivative the C-terminal domain of SP-B (residues 63-78) with cationic arginines (R) replaced with serine residues, in oxidized (—◯--) and (—∇—) format, the N-terminal domain of SP-B (residues 11 to 25 of native SP-B) in the monomer (—□—) and a dimer (—●--) conformation and ISPL alone (—Δ—). […] A Mini-B construct also compares favorably with the commercial preparation INFASURF™ that contains both the native SP-B and SP—C protein.
(§1) The activity of a Mini-B construct is very similar to that of the commercial preparation INFASURF™ that includes equimolar amounts of native SP-B in native lung surfactant lipids and native SP—C proteins typically used in present RDS therapies.

[1] = Surface shear viscosity measurements in ISPL lipid dispersion; type: physicochemical; settings: over surface pressures and compression-expansion cycles, FIG. 7
From the text: Surface shear viscosity measurements of a Mini-B construct in a simulated INFASURF™ lipid dispersion ISPL (cow lung lavage lipids) is represented in FIG. 7.

[2] = tested on: Rat RDS animal model system; assay: Dynamic compliance measurements in the Rat RDS animal model system; type: in vivo; settings: peptide in simulated INFASURF lipids (ISPL), FIG. 6B
From the text: FIG. 6B represents dynamic compliance measurements (a measure of lung mechanical plasticity) in the Rat RDS animal model system comparing INFASURF™ replacement formulation, pig native surfactant B in INFASURF™ lipids (—◯—), a Mini-B construct in simulated INFASURF™ lipids (—▪—), the C-terminal domain of SP-B (residues 63-78) in the oxidized (--♦--) and reduced (—∇--) format, a serine derivative the C-terminal domain of SP-B (residues 63-78) with cationic arginines (R) replaced with serine residues, in oxidized (—◯--) and (—∇—) format, the N-terminal domain of SP-B (residues 11 to 25 of native SP-B) in the monomer (—□—) and dimer (—●--) conformation and ISPL alone (—Δ—).
as §1

[3] = Brewster Angle Microscope images of monolayer surfaces on the Langmuir trough; type: physicochemical; settings: Mini-B-ISPL lipids vs lipids alone; BAM images, FIG. 11
From the text: Brewster Angle Microscope images of monolayer surfaces of Mini-B-ISPL lipids versus lipids alone on the Langmuir trough as a fimcfion of surface pressure is represented in FIG. 11. […] This Mini-B induced lipid aggregation in monolayers is typical of the effect of native surfactant protein B and surfactant B type peptides.
Brewster Angle Microscope images of monlayer surfaces of Mini-B-synthetic cow lung lipids compared with the commercial surfactant preparation INFASURF™ that contains native SP-B and SP-C proteins is represented in FIG. 12. Preparations containing Mini-B aggregate lipids were similar to the commercial surfactant preparation.

[4] = Langmuir trough surface activity (surface pressure upon compression, respreading); type: physicochemical; settings: in ISPL lipids vs lipids alone, FIG. 8, 9
From the text: Langmuir trough measurements of a Mini-B construct in ISPL lipids are represented in FIG. 8. The peptide at two different concentrations is compared to lipids […]. Lipids alone on the Langmuir trough show very little change in surface pressure with compression of the air-water interface film. […] Higher concentrations of a Mini-B construct in the lipids further enhance the surface activity of the preparation and show the characteristic chances in surface pressure as a function of compression/decompression of the lipid-peptide surface film that are associated with optimal in vitro activity typical of lung surfactant preparations containing SP-B native protein.
FIG. 9 illustrates Langmuir trough measurements of a Mini-B construct in ISPL. The construct was measured at a single concentration to show the consistent pressure dependent reproducibility of the construct in the lipids that is an important criteria of an effective lung surfactant dispersion. Lipids alone on the Langmuir trough show very little change in surface pressure with compression of the air-water interface film. […]

| Substance | in vivo activity in the rat RDS model system (lavaged rat model of RDS) | shear surface viscosity [1] | dynamic compliance [2] | lipid aggregation in monolayers [3] | oxygenation response (lavaged rat model of RDS; lavaged rat model of RDS, peptide in simulated INFASURF lipids (ISPL), FIG. 6A) | surface activity (surface pressure as a function of film compression) [4] |
| --- | --- | --- | --- | --- | --- | --- |
| B11-25: N-terminal domain of SP-B (residues 11 to 25 of native SP-B) (CRALIKRIQAMIPKG; Pulmonary surfactant-associated protein B; UniProt P07988 211-225, looked up, fragment) [reference compound] | relatively ineffective in vivo activity |  |  |  |  |  |
| B63-78: C-terminal domain of SP-B (residues 63-78) (GRMLPQLVCRLVLRCS; Pulmonary surfactant-associated protein B; UniProt P07988 263-278, looked up, fragment) [reference compound] | relatively ineffective in vivo activity |  |  |  |  |  |
| CWLCRALIKRIQAMIPKGGRMLPQLVCRLVLRCS [Mini-B, disulfide stabilized 34 residue cyclic peptide joining SP-B residues 8 to 25 and 63 to 78] | exceeds that observed for native pig SP-B in synthetic surfactant lipids | remains constant at a large range of surface pressures | performs very nearly as well as the commercial preparation | aggregate | outperforms all of the peptide segments of Mini-B separately; also recorded: closely parallels the oxygenation response that is observed for full-length native SP-B protein | enhances the surface activity |

From US7538090B1, “Exogenous surfactant protein B mimic” (Los Angeles Biomedical Research Institute at Harbor-UCLA …, priority 2004, dated 2009)
